Earlier results, collected in paper PMC10116525 (ACS Omega, 2023).
Where two headings read alike, the source gives them in different places.

[1] = Lys^B29-lipidated insulin analogues

Substance | Duration of action [1] | Duration of action (precipitation in the subcutaneous space)
degludec | ≤ 42 h | –
insulin glargine | – | up to 24 h
detemir | up to 24 h | –
